Source: US12686689B2, “HPK1 inhibitor, preparation method therefor and use thereof” (WIGEN BIOMEDICINE TECHNOLOGY (SHANGHAI) CO., LTD., priority 2020, dated 2026)

Target: HPK1 (Homo sapiens, UniProt Q92918)
Assay: Inhibitory effect against enzyme activity of HPK1 (lantha Screen, PKC substrate)
Type: biochemical
Conditions: class symbols defined as IC50 ranges, read-out: Inhibition rate (%)
Experimental: Example 130: Assay of Inhibitory Effect of Compound Against Enzyme Activity of HPK1
The inhibitory effect of the compound against the enzyme activity of HPK1 was determined by using a lantha Screen method with PKC as a substrate. The process comprises the following specific steps: the HPK1 protein was incubated with the serially-diluted compound at 28° C. for 10 min followed by addition of fluoroescein-labeled PKC substrate and ATP to react for 90 min. After termination of the reaction, a Terbium-labeled antibody against phosphorylated PKC was added and incubated for 60 min. The energy transfer of Teribium and fluoroscein was monitored by detecting luminescence at 520 nm and 450 nm to quantify PKC as the level of phosphorylation of […]. Inhibition % and IC50 of the compound were calculated compared to the control group.

Chain of HPK1 (Q92918 whole entry): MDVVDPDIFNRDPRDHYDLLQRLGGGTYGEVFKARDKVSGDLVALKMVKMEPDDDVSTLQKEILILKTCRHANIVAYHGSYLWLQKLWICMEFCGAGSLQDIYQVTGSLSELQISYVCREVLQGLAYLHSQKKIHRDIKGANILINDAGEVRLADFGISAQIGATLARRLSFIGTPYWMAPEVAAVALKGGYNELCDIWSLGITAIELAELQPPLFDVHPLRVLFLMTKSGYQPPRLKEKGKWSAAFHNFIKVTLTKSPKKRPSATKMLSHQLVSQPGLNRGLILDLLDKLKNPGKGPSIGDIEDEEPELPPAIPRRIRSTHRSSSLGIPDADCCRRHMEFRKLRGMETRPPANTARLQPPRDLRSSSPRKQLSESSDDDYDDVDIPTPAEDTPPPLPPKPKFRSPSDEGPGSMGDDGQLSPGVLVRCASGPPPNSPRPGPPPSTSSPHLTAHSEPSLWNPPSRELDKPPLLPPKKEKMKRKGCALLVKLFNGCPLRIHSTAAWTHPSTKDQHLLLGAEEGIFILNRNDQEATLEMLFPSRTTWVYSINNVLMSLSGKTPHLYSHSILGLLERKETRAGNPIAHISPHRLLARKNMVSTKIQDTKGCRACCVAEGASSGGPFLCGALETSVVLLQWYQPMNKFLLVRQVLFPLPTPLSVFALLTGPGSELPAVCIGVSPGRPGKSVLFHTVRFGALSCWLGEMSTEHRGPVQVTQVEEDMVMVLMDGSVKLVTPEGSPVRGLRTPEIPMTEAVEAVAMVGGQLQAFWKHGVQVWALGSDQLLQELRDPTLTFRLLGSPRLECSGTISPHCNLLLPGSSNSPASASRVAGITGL

Structure (SMILES) | IC50 [nM]
CN1CCN2c3ccc(-c4n[nH]c5cc(C#N)c(-c6ccccc6F)cc45)cc3OCC2C1 (stereo not shown) [Compound 1, 5-(2-fluorophenyl)-3-(3-methyl-1,2,3,4,4a,5-hexahydrobenzo[b]pyrazino[1,2-d][1,4]oxazin-8-yl)-1H-indazole-6-carbonitrile] | ≤ 10
CN1CCN2c3ccc(-c4n[nH]c5cc(C#N)c(-c6ccccc6F)cc45)cc3OC[C@@H]2C1 [Compound 1-a] | ≤ 10
CN1CCN2c3ccc(-c4n[nH]c5cc(C#N)c(-c6ccccc6F)cc45)cc3OC[C@H]2C1 [Compound 1-b] | ≤ 10
COc1ccccc1-c1cc2c(-c3ccc4c(c3)OCC3CN(C)CCN43)n[nH]c2cc1C#N (stereo not shown) [Compound 2] | ≤ 10
Cc1ccccc1-c1cc2c(-c3ccc4c(c3)OCC3CN(C)CCN43)n[nH]c2cc1C#N (stereo not shown) [Compound 3] | 10 to 100
CN1CCN2c3ccc(-c4n[nH]c5cc(C#N)c(-c6c(F)cccc6F)cc45)cc3OCC2C1 (stereo not shown) [Compound 4] | 10 to 100
Cc1cccc(F)c1-c1cc2c(-c3ccc4c(c3)OCC3CN(C)CCN43)n[nH]c2cc1C#N (stereo not shown) [Compound 5] | 10 to 100
CN1CCN2c3ccc(-c4n[nH]c5cc(C#N)c(-c6cccc(F)c6F)cc45)cc3OCC2C1 (stereo not shown) [Compound 7] | ≥ 100
CN1CCN2c3ccc(-c4n[nH]c5cc(C#N)c(-c6cccc(C#N)c6F)cc45)cc3OCC2C1 (stereo not shown) [Compound 8] | ≤ 10
CN1CCN2c3ccc(-c4n[nH]c5cc(C#N)c(-c6cccc(C(N)=O)c6F)cc45)cc3OCC2C1 (stereo not shown) [Compound 9] | ≤ 10
CN1CCN2c3ccc(-c4n[nH]c5cc(C#N)c(-c6cccc(C(=O)NCc7ccncc7)c6F)cc45)cc3OCC2C1 (stereo not shown) [Compound 10] | ≤ 10
CN1CCN2c3ccc(-c4n[nH]c5cc(C#N)c(-c6cccc(NS(C)(=O)=O)c6F)cc45)cc3OCC2C1 (stereo not shown) [Compound 11] | 10 to 100
CN1CCN2c3ccc(-c4n[nH]c5cc(C#N)c(-c6cccc(P(C)(C)=O)c6F)cc45)cc3OCC2C1 (stereo not shown) [Compound 12] | ≤ 10
CN1CCN2c3ccc(-c4n[nH]c5cc(C#N)c(-c6cccc(S(C)(=O)=O)c6F)cc45)cc3OCC2C1 (stereo not shown) [Compound 13] | ≥ 100
CNS(=O)(=O)c1cccc(-c2cc3c(-c4ccc5c(c4)OCC4CN(C)CCN54)n[nH]c3cc2C#N)c1F (stereo not shown) [Compound 14] | ≤ 10
Cc1ccc(F)c(F)c1-c1cc2c(-c3ccc4c(c3)OCC3CN(C)CCN43)n[nH]c2cc1C#N (stereo not shown) [Compound 15] | ≤ 10
CNCc1cc(C)c(-c2cc3c(-c4ccc5c(c4)OCC4CN(C)CCN54)n[nH]c3cc2C#N)c(F)c1 (stereo not shown) [Compound 17] | ≤ 10
CNCc1cc(F)c(-c2cc3c(-c4ccc5c(c4)OCC4CN(C)CCN54)n[nH]c3cc2C#N)c(C(F)(F)F)c1 (stereo not shown) [Compound 19] | ≤ 10
CNCc1cc(F)c(-c2cc3c(-c4ccc5c(c4)OCC4CN(C)CCN54)n[nH]c3cc2C#N)c(OC)c1 (stereo not shown) [Compound 20] | ≤ 10
CCNCc1cc(F)c(-c2cc3c(-c4ccc5c(c4)OCC4CN(C)CCN54)n[nH]c3cc2C#N)c(F)c1 (stereo not shown) [Compound 21] | ≤ 10
CN1CCN2c3ccc(-c4n[nH]c5cc(C#N)c(-c6c(F)cc(C7CCCN7)cc6F)cc45)cc3OCC2C1 (stereo not shown) [Compound 22] | ≤ 10
CN1CCN2c3ccc(-c4n[nH]c5cc(C#N)c(-c6c(F)cc(C7CCCCN7)cc6F)cc45)cc3OCC2C1 (stereo not shown) [Compound 23] | ≤ 10
CN1CCN2c3ccc(-c4n[nH]c5cc(C#N)c(-c6c(F)cc(CC#N)cc6F)cc45)cc3OCC2C1 (stereo not shown) [Compound 24] | ≤ 10

Structure (SMILES) | IC50 [nM]
COCc1cc(F)c(-c2cc3c(-c4ccc5c(c4)OCC4CN(C)CCN54)n[nH]c3cc2C#N)c(F)c1 (stereo not shown) [Compound 25] | ≤ 10
CN1CCN2c3ccc(-c4n[nH]c5cc(C#N)c(-c6c(F)cc(C7CCCC7N)cc6F)cc45)cc3OCC2C1 (stereo not shown) [Compound 26] | ≤ 10
CN(C)CC(=O)Nc1cc(F)c(-c2cc3c(-c4ccc5c(c4)OCC4CN(C)CCN54)n[nH]c3cc2C#N)c(F)c1 (stereo not shown) [Compound 27] | ≤ 10
CN1CCN2c3ccc(-c4n[nH]c5cc(C#N)c(-c6c(F)cc(NC(=O)CN7CCCC7)cc6F)cc45)cc3OCC2C1 (stereo not shown) [Compound 28] | ≤ 10
CN1CCN2c3ccc(-c4n[nH]c5cc(C#N)c(-c6c(F)cc(NC(=O)CN7CC8(COC8)C7)cc6F)cc45)cc3OCC2C1 (stereo not shown) [Compound 29] | ≤ 10
CN1CCN2c3ccc(-c4n[nH]c5cc(C#N)c(-c6c(F)cc(NC(=O)CC#N)cc6F)cc45)cc3OCC2C1 (stereo not shown) [Compound 30] | ≤ 10
CN1CCN2c3ccc(-c4n[nH]c5cc(C#N)c(-c6c(F)cc(NC(=O)Cc7cccnc7)cc6F)cc45)cc3OCC2C1 (stereo not shown) [Compound 31] | 10 to 100
CN1CCN2c3ccc(-c4n[nH]c5cc(C#N)c(-c6c(F)cc(OCc7ccncc7)cc6F)cc45)cc3OCC2C1 (stereo not shown) [Compound 32] | ≤ 10
CN1CCC(Oc2cc(F)c(-c3cc4c(-c5ccc6c(c5)OCC5CN(C)CCN65)n[nH]c4cc3C#N)c(F)c2)CC1 (stereo not shown) [Compound 33] | ≤ 10
CN1CCN2c3ccc(-c4n[nH]c5cc(C#N)c(-c6c(F)cc(OC(=O)N(C)C)cc6F)cc45)cc3OCC2C1 (stereo not shown) [Compound 34] | 10 to 100
CN1CCN2c3ccc(-c4n[nH]c5cc(C#N)c(-c6c(F)cc(C(=O)N7CC(O)C7)cc6F)cc45)cc3OCC2C1 (stereo not shown) [Compound 36] | ≤ 10
CN1CCN2c3ccc(-c4n[nH]c5cc(C#N)c(-c6c(F)ccc7c6CCNC7)cc45)cc3OCC2C1 (stereo not shown) [Compound 37] | ≤ 10
CN1CCN2c3ccc(-c4n[nH]c5cc(C#N)c(-c6c(F)ccc7c6CCCC7N)cc45)cc3OCC2C1 (stereo not shown) [Compound 38] | ≤ 10
CN1CCN2c3ccc(-c4n[nH]c5cc(C#N)c(-c6c(F)cc7c(c6F)CC(N)CC7)cc45)cc3OCC2C1 (stereo not shown) [Compound 39] | ≤ 10
CN1CCN2c3ccc(-c4n[nH]c5cc(C#N)c(-c6ccc(-c7ccccn7)cc6F)cc45)cc3OCC2C1 (stereo not shown) [Compound 40] | 10 to 100
CN1CCN2c3ccc(-c4n[nH]c5cc(C#N)c(-c6cccnc6)cc45)cc3OCC2C1 (stereo not shown) [Compound 41] | ≤ 10
CN1CCN2c3ccc(-c4n[nH]c5cc(C#N)c(-c6ncccc6F)cc45)cc3OCC2C1 (stereo not shown) [Compound 42] | ≤ 10
COc1ccncc1-c1cc2c(-c3ccc4c(c3)OCC3CN(C)CCN43)n[nH]c2cc1C#N (stereo not shown) [Compound 44] | ≤ 10
Cc1cncc(-c2cc3c(-c4ccc5c(c4)OCC4CN(C)CCN54)n[nH]c3cc2C#N)c1 (stereo not shown) [Compound 45] | ≤ 10
CNC(=O)c1cncc(-c2cc3c(-c4ccc5c(c4)OCC4CN(C)CCN54)n[nH]c3cc2C#N)c1 (stereo not shown) [Compound 46] | ≤ 10
Cc1n[nH]cc1-c1cc2c(-c3ccc4c(c3)OCC3CN(C)CCN43)n[nH]c2cc1C#N (stereo not shown) [Compound 47] | ≤ 10
CN1CCN2c3ccc(-c4n[nH]c5cc(C#N)c(-c6cncnc6)cc45)cc3OCC2C1 (stereo not shown) [Compound 48] | ≤ 10
CN1CCN2c3ccc(-c4n[nH]c5cc(C#N)c(-c6cnccn6)cc45)cc3OCC2C1 (stereo not shown) [Compound 49] | ≤ 10

Structure (SMILES) | IC50 [nM]
CN1CCN2c3ccc(-c4n[nH]c5cc(C#N)c(-c6cccc7[nH]ncc67)cc45)cc3OCC2C1 (stereo not shown) [Compound 50] | ≤ 10
CN1CCN2c3ccc(-c4n[nH]c5cc(C#N)c(-c6cnc7cnn(C)c7c6)cc45)cc3OCC2C1 (stereo not shown) [Compound 51] | ≤ 10
CN1CCN2c3ccc(-c4n[nH]c5cc(C#N)c(-c6cnc7c(c6)ncn7C)cc45)cc3OCC2C1 (stereo not shown) [Compound 52] | ≤ 10
CN1CCN2c3ccc(-c4n[nH]c5cc(C#N)c(-c6cnc7nccnc7c6)cc45)cc3OCC2C1 (stereo not shown) [Compound 53] | ≤ 10
CN1CCN2c3ccc(-c4n[nH]c5cc(C#N)c(-c6cncc7ccccc67)cc45)cc3OCC2C1 (stereo not shown) [Compound 54] | 10 to 100
CN1CCN2c3ccc(-c4n[nH]c5cc(C#N)c(-c6cccn7ccnc67)cc45)cc3OCC2C1 (stereo not shown) [Compound 55] | ≤ 10
CN1CCN2c3ccc(-c4n[nH]c5cc(C#N)c(-c6cccn7cnnc67)cc45)cc3OCC2C1 (stereo not shown) [Compound 56] | ≤ 10
CN1CCN2c3ccc(-c4n[nH]c5cc(C#N)c(-c6cccn7ncnc67)cc45)cc3OCC2C1 (stereo not shown) [Compound 57] | ≤ 10
CN1CCN2c3ccc(-c4n[nH]c5cc(C#N)c(-c6cnc7ccnn7c6)cc45)cc3OCC2C1 (stereo not shown) [Compound 58] | ≤ 10
CN1CCN2c3ccc(-c4n[nH]c5cc(C#N)c(-c6ccc7nccn7c6)cc45)cc3OCC2C1 (stereo not shown) [Compound 59] | ≤ 10
CN1CCN2c3ccc(-c4n[nH]c5cc(C#N)c(-c6ccn7ncnc7c6)cc45)cc3OCC2C1 (stereo not shown) [Compound 60] | ≤ 10
CN1CCN2c3ccc(-c4n[nH]c5cc(C#N)c(-c6ccn7cnnc7c6)cc45)cc3OCC2C1 (stereo not shown) [Compound 61] | ≤ 10
CN1CCN2c3ccc(-c4n[nH]c5cc(C#N)c(-c6cnn7ccccc67)cc45)cc3OCC2C1 (stereo not shown) [Compound 62] | 10 to 100
CN1CCN2c3ccc(-c4n[nH]c5cc(C#N)c(-c6cnn7cccnc67)cc45)cc3OCC2C1 (stereo not shown) [Compound 63] | ≤ 10
COc1cccc(F)c1-c1cc2c(-c3ccc4c(c3)OCC3CN(C)CCN43)n[nH]c2cn1 (stereo not shown) [Compound 64] | ≤ 10
Cc1cccc(F)c1-c1cc2c(-c3ccc4c(c3)OCC3CN(C)CCN43)n[nH]c2cn1 (stereo not shown) [Compound 65] | 10 to 100
CN1CCN2c3ccc(-c4n[nH]c5cnc(-c6c(F)cccc6F)cc45)cc3OCC2C1 (stereo not shown) [Compound 66] | 10 to 100
CNCc1cc(F)c(-c2cc3c(-c4ccc5c(c4)OCC4CN(C)CCN54)n[nH]c3cn2)c(F)c1 (stereo not shown) [Compound 68] | ≤ 10
CNCc1cc(C)c(-c2cc3c(-c4ccc5c(c4)OCC4CN(C)CCN54)n[nH]c3cn2)c(F)c1 (stereo not shown) [Compound 69] | ≤ 10
Cc1ccncc1-c1cc2c(-c3ccc4c(c3)OCC3CN(C)CCN43)n[nH]c2cn1 (stereo not shown) [Compound 70] | ≤ 10
COc1ccncc1-c1cc2c(-c3ccc4c(c3)OCC3CN(C)CCN43)n[nH]c2cn1 (stereo not shown) [Compound 71] | ≤ 10
